PMC10509167, “Identification and characterization of endo-α-, exo-α-, and exo-β-D-arabinofuranosidases degrading lipoarabinomannan and arabinogalactan of mycobacteria” (Nature Communications, 2023)

Target: T1, EndoMA1 (MIAR_33230) (Microbacterium arabinogalactanolyticum, UniProt A0AAJ6N6D4)
T1 construct: 53,678 Da monomer, dimer; catalytic domain plus putative CBM
Assay: X-ray crystallography ([…] Å)
Assay type: binding
Conditions: co-crystallized with A9LT; second site, putative CBM domain; possible crystal packing artifact

T1 sequence (A0AAJ6N6D4 entry or part of it): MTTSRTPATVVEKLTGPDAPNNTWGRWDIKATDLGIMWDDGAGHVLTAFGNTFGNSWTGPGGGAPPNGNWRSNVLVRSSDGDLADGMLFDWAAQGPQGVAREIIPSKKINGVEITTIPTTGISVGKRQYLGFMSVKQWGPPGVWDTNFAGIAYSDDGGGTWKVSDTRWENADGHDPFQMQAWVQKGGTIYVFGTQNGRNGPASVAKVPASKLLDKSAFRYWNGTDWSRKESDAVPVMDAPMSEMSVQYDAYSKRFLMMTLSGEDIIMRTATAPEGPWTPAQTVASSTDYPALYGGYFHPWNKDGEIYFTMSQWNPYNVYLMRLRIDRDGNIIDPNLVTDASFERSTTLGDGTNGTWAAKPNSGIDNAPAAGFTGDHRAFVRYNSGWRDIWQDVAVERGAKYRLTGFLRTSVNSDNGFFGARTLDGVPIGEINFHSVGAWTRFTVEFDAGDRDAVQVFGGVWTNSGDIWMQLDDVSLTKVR

OC[C@H]1O[C@H](OC[C@H]2O[C@H](OC[C@H]3O[C@H](OC[C@H]4OC(O)[C@@H](O)[C@@H]4O)[C@@H](O)[C@@H]3O)[C@@H](O)[C@@H]2O)[C@@H](O)[C@@H]1O (stereo partly shown) [A4L]
X-ray crystallography (1.80 Å): The A4L molecule is bound to the shallow surface of the putative CBM domain
